Here are results for 17 compounds from US8017772B2, “Substituted tetrahydropyrrolopyrazine compounds and the use thereof in the treatment and/or inhibition of pain” (Gruenenthal GmbH, priority 2006, dated 2011).

The structures appear in SMILES notation.

One assay has as its target T1, hKCNQ2/3 (Homo sapiens, UniProt O43525+O43526). The assay can be described thus: Voltage clamp (patch-clamp) measurements on stably transfected hKCNQ2/3 CHO-K1 cell line. Type of assay: cell-based. Particulars: potential −40 mV, relative to retigabine (RG = 1). On the procedure: Voltage Clamp Measurements
In order to confirm a KCNQ2/3-agonistic action of the substances electrophysiologically, patch-clamp measurements (Hamill et al., 1981) were carried out in voltage clamp mode on a stably transfected hKCNQ2/3 CHO-K1 cell line. After formation of the gigaseal, the cells were first clamped at a holding potential of −60 mV. Thereafter, depolarizing voltage jumps were applied up to a potential of +20 mV (increment: 20 mV, duration: 1 second) in order to confirm the functional expression of KCNQ2/3-typical currents. The testing of the substances was carried out at a potential of −40 mV. The increase in current induced by retigabine (10 at −40 mV was first recorded as a positive control on each cell. After complete washing out of the retigabine effect (duration: 80 s), the test substance was applied. • See: Hamill O P, Marty A, Neher E, Sakmann B, Sigworth F J.: Improved patch-clamp techniques for high-resolution current recording from cells and cell-free membrane patches. Pflugers Arch. 1981 August; 391(2):85-100.
In general terms: Patch clamp records ionic current or voltage across a cell membrane.
As for `O=C(CC(=O)N1CCn2cccc2C1c1ccccc1)Nc1cccc(C(F)(F)F)c1` (centres unmarked) [Example 90], the “MAN rel eff @ 10 μM [RG = 1]” value was −0.46. `CC(NC(=O)CCC(=O)N1CCn2cccc2C1c1ccccc1)c1cccc(C(F)(F)F)c1` (centres unmarked) [Example 81, 4-oxo-4-(1-phenyl-3,4-dihydropyrrolo[1,2-a]pyrazin-2(1H)-yl)-N-(1-(3-(trifluoromethyl)phenyl)ethyl)butanamide]: the “MAN rel eff @ 10 μM [RG = 1]” value is given as 0.25. As to `CC(NC(=O)CCC(=O)N1CCn2cccc2C1c1cccs1)c1cccc(C(F)(F)F)c1` (centres unmarked) [Example 82, 4-oxo-4-(1-(thiophen-2-yl)-3,4-dihydropyrrolo[1,2-a]pyrazin-2(1H)-yl)-N-(1-(3-(trifluoromethyl)phenyl)ethyl)butanamide], the “MAN rel eff @ 10 μM [RG = 1]” value was determined as 0.11.

A further assay deals with T1, hKCNQ2/3. The assay can be described thus: Fluorescence assay using a voltage sensitive dye (BMG). Type of assay: cell-based. As to conditions: CHO-K1 cells expressing KCNQ2/3. On the procedure:
11. Biological Data 12. Fluorescence Assay Using a Voltage Sensitive Dye
Human CHO-K1 cells expressing KCNQ2/3 channels are cultivated adherently at 37° C., 5% CO2 and 95% humidity in cell culture bottles (e.g. 80 cm^2 TC flasks, Nunc) with MEM Alpha Medium (1×, liquid, Invitrogen, #22571), 10% fetal calf serum (FCS) (Invitrogen, #10270-106, heat-inactivated) and the necessary selection antibiotics.
Before being sown out for the measurements, the cells are washed with a 1×DPBS buffer without Ca^2+/Mg^2+ (e.g. Invitrogen, #14190-094) and detached from the bottom of the culture vessel by means of Accutase (PAA Laboratories, #L11-007) (incubation with Accutase for 15 min at 37° C.). The cell count then present is determined using a CASY™ cell counter (TCC model, Schärfe System) in order subsequently to apply 20,000 cells/well/100 μl of the described nutrient medium to 96-well measuring plates of the Corning™ CellBIND™ type (Flat Clear Bottom Black Polystyrene Microplates, #3340). Incubation is then carried out for one hour at room temperature, without gassing or adjusting the humidity, followed by incubation for 24 hours at 37° C., 5% CO2 and 95% humidity.
The voltage-sensitive fluorescent dye from the Membrane Potential Assay Kit (Red™ Bulk format part R8123 for FLIPR, Molecular Devices™) is prepared by dissolving the contents of a vessel Membrane Potential Assay Kit Red Component A in 200 ml of extracellular buffer (ES buffer, 120 mM NaCl, 1 mM KCl, 10 mM HEPES, 2 mM CaCl2, 2 mM MgCl2, 10 mM glucose; pH 7.4). After removal of the nutrient medium, the cells are washed with 200 μl of ES buffer, then covered with a layer of 100 μl of the dye solution prepared above and incubated for 45 min at room temperature with the exclusion of light.
The fluorescence measurements are carried out with a BMG Labtech FLUOstar™ or BMG Labtech POLARstar™ instrument (525 nm excitation, 560 nm emission, Bottom Read mode). After incubation of the dye, […] of the test substances in the desired concentrations, or 50 μl of ES buffer for control purposes, are introduced into separate cavities of the measuring plate and incubated for 30 min at room temperature while being shielded from light. The fluorescence intensity of the dye is then measured for 5 min and the fluorescence value F1 of each well is thus determined at a given, constant time. 15 μl of a […] KCl solution ([…]) are then added to each well. The change in fluorescence is subsequently measured until all the relevant measured values have been obtained (mainly 5-30 min). At a given time after KCl application, a fluorescence value F2 is determined, in this case at the time of the fluorescence peak.
For calculation, the fluorescence intensity F2 is compared with the fluorescence intensity F1, and the agonistic activity of the target compound on the potassium channel is determined therefrom. F2 and F1 are calculated as follows:
[formula] In order to determine whether a substance has an agonistic effect,
[formula] for example, can be compared with
[formula] determined by adding to the reaction batch only the buffer solution instead of the substance to be tested, determining the value F1K of the fluorescence intensity, adding the potassium ions as described above and measuring a value F2K of the fluorescence intensity. Then F2K and F1K are calculated as follows: […]
A substance has an agonistic activity on the potassium channel when
[formula] is greater than
[formula] Independently of the comparison of
[formula] it is also possible to conclude that a target compound has agonistic activity if an increase in
[formula] is to be observed as the dosage of the target compound increases. Calculations of EC50 and IC50 values are carried out with the aid of “Prism 4” software (GraphPad Software™). The following compounds were tested by way of example: […]
What is called EC50 is the concentration that produces a half-maximal response. Low values mean greater potency, high ones weaker potency. Compound `CC1c2cccn2CCN1C(=O)CCC(=O)NCc1cccc(C(F)(F)F)c1` (centres unmarked) [Example 86, 4-(1-methyl-3,4-dihydropyrrolo[1,2-a]pyrazin-2(1H)-yl-4-oxo-N-(3-trifluoromethyl)benzyl)butanamide] gave an EC50 of 11.6 µM. Compound `O=C(CN1CCn2cccc2C1c1ccc2c(c1)OCCO2)NCc1cccc(C(F)(F)F)c1` (centres unmarked) [Example 8, 2-[1-(2,3-dihydro-benzo[1,4]dioxin-6-yl)-3,4-dihydro-1H-pyrrolo[1,2-a]pyrazin-2-yl]-N-(3-trifluoromethyl-benzyl)-acetamide] displayed an EC50 of 2.97 µM.

Compound `O=C(CC(=O)N1CCn2cccc2C1c1ccccc1)NCc1cccc(C(F)(F)F)c1` (centres unmarked) [Example 89, 3-oxo-3-(1-phenyl-3,4-dihydropyrrolo[1,2-a]pyrazin-2(1H)-yl)-N-(3-(trifluoromethyl)benzyl)propanamide] gave an EC50 of 4.55 µM. In turn, `O=C(CCC(=O)N1CCn2cccc2C1c1ccccc1)NCc1cccs1` (centres unmarked) [Example 83, 4-oxo-4-(1-phenyl-3,4-dihydropyrrolo[1,2-a]pyrazin-2(1H)-yl)-N-(thiophen-2-ylmethyl)butanamide] yielded an EC50 of 14.3 µM. Consider `CC(NC(=O)CCC(=O)N1CCn2cccc2C1c1ccccc1)c1cccc(C(F)(F)F)c1` (centres unmarked) [Example 81, 4-oxo-4-(1-phenyl-3,4-dihydropyrrolo[1,2-a]pyrazin-2(1H)-yl)-N-(1-(3-(trifluoromethyl)phenyl)ethyl)butanamide], for which the EC50 turned out to be 2.95 µM. Still for that read-out and setting: the result for `CC(NC(=O)CCC(=O)N1CCn2cccc2C1c1cccs1)c1cccc(C(F)(F)F)c1` (centres unmarked) [Example 82, 4-oxo-4-(1-(thiophen-2-yl)-3,4-dihydropyrrolo[1,2-a]pyrazin-2(1H)-yl)-N-(1-(3-(trifluoromethyl)phenyl)ethyl)butanamide] reads 5.28 µM.

Still in this assay, the particulars now being: agonistic activity at 10 μM, CHO-K1 cells expressing KCNQ2/3; read-out: BMG AG %@10 μm.
As for `Cc1ccc(C2c3cccn3CCN2CC(=O)NCc2cccc(C(F)(F)F)c2)cc1` (centres unmarked) [Example 37, 2-(1-p-tolyl-3,4-dihydro-1H-pyrrolo[1,2-a]pyrazin-2-yl)-N-(3-trifluoromethyl-benzyl)-acetamide], the activation at 10 µM came to 24%.

For the compound `O=C(/C=C/c1ccccc1F)NCC(=O)N1CCn2cccc2C1c1ccccc1` (centres unmarked) [Example 92, (E)-3-(2-fluorophenyl)-N-(2-oxo-2-(1-phenyl-3,4-dihydropyrrolo[1,2-a]pyrazin-2(1H)-yl)ethyl)acrylamide], the activation at 10 µM came out at 7%.

Turning to `CC1c2cccn2CCN1C(=O)CCC(=O)NCc1ccc(F)cc1` (centres unmarked) [Example 85, N-(4-fluorobenzyl)-4-(1-methyl-3,4-dihydropyrrolo[1,2-a]pyrazin-2(1H)-yl)-4-oxobutanamide], the activation at 10 µM came out at 0%. In the case of `O=C(CN1CCn2cccc2C1c1ccccc1)NCc1cccc(C(F)(F)F)c1` (centres unmarked) [Example 91, 2-(1-phenyl-3,4-dihydropyrrolo[1,2-a]pyrazin-2(1H)-yl)-N-(3-(trifluoromethyl)benzyl)acetamide], the activation at 10 µM worked out at 9%. Regarding `COc1cccc(C2c3cccn3CCN2CC(=O)NCc2cccc(C(F)(F)F)c2)c1` (centres unmarked) [Example 20, 2-(1-(3-methoxyphenyl)-3,4-dihydropyrrolo[1,2-a]pyrazin-2(1H)-yl)-N-(3-(trifluoromethyl)benzyl)acetamide], the activation at 10 µM turned out to be 21%. Regarding `O=C(CCCc1ccccc1)NCC(=O)N1CCn2cccc2C1c1ccccc1` (centres unmarked) [Example 88, N-(2-oxo-2-(1-phenyl-3,4-dihydropyrrolo[1,2-a]pyrazin-2(1H)-yl)ethyl)-4-phenylbutanamide], the activation at 10 µM came out at 5%.

On to `O=C(CCC(=O)N1CCn2cccc2C1c1ccc(Cl)cc1)NCc1cccc(C(F)(F)F)c1` (centres unmarked) [Example 1, 4-[1-(4-chloro-phenyl)-3,4-dihydro-1H-pyrrolo[1,2-a]pyrazin-2-yl]-4-oxo-N-(3-trifluoromethyl-benzyl)-butyramide], for which the activation at 10 µM is 69%. Turning to `Cc1cccc(C2c3cccn3CCN2C(=O)CCC(=O)NCc2cccc(C(F)(F)F)c2)c1` (centres unmarked) [Example 5, 4-oxo-4-(1-m-tolyl-3,4-dihydro-1H-pyrrolo[1,2-a]pyrazin-2-yl)-N-(3-trifluoromethyl-benzyl)-butyramide], the activation at 10 µM stood at 28%. As to `O=C(CC(=O)N1CCn2cccc2C1c1ccccc1)Nc1cccc(C(F)(F)F)c1` (centres unmarked) [Example 90], the activation at 10 µM is -20%. Consider `CC(NC(=O)CCC(=O)N1CCn2cccc2C1Cc1ccccc1)c1cccc(C(F)(F)F)c1` (centres unmarked) [Example 80, 4-(1-benzyl-3,4-dihydropyrrolo[1,2-a]pyrazin-2(1H)-yl)-4-oxo-N-(1-(3-(trifluoromethyl)phenyl)ethyl)butanamide], for which the activation at 10 µM was found to be 10%. As for `O=C(CCc1cccc(C(F)(F)F)c1)NCC(=O)N1CCn2cccc2C1c1ccccc1` (centres unmarked) [Example 87], the activation at 10 µM was 3%.
